The text below walks through data of patent US20210322297A9, “COSMETIC COMPOSITIONS FOR PROTECTION AGAINST LIGHT-INDUCED DAMAGES” (priority 2018, published 2021).

“And” between values parts separate entries of the source, which are not always exact repeats. Equal entries are not always repeated.

In this experiment the test system is Human keratinocytes (HaCAT). Description: Carbonyl Score analysis: blue light (460 nm)-induced protein oxidative damage (carbonylation). In kind it is cell-based. An excerpt: Human keratinocytes (HaCAT) were irradiated in the presence or absence of a composition (C-1) comprising equal weight amounts of extracts (Q), (GS) and (GT) (VitakeloxTM) using an irradiation system available from OxiProteomics®. A solution of N-acetyl-cysteine was used as positive control of protection. Just after irradiation, proteins were extracted from the cells and analyzed. Carbonylated proteins were labeled with specific functionalized fluorescent probes and the resulting samples were resolved by high-resolution electrophoresis. Total proteins were post-stained with SyproTM Ruby protein gel stain. A Carbonyl (protein damage) Score was obtained for each sample after normalization of the fluorescent signal for carbonylated proteins by total proteins. A significant increase in protein oxidative damage was observed upon blue light irradiation. This increase was prevented in the presence of composition (C-1) at two different concentrations (0.01% and 0.005% w/v) and with two times of treatment (6 hours and 24 hours). HaCaT cells were cultured in calcium-free DMEM (Dulbecco's Modified Eagle Medium), with 10% SVF […], at 37° C. and humid atmosphere, supplemented with 5% CO2. Cells were seeded (500.000 cells/well) at day 0 (D0) in multi-well plates containing culture medium and distributed in 8 experimental groups as depicted in Table 1. On day 1 (D1), two solutions of composition (C-1) having two different concentrations (0.01% and 0.005%) were prepared by solubilisation of the composition in the culture medium. Experimental groups 4 and 6 were incubated for 24 hours (t2) with the solutions prior to irradiation. At day 2 (D2), experimental groups 3 and 5 were incubated for 6 hours (t1) prior to blue light irradiation. Groups 7 and 8 were incubated with a solution of NAC (N-acetyl-cysteine) for 6 and 24 hours. On day 2 (D2), the cells were washed and a stress was induced by irradiation with Blue Light (LED source, emission peak at λ=460 nm), using an OxiProteomics® irradiation system. Group 1 was not irradiated. Just after irradiation, cells were collected, snap-frozen and stored at -80° C. for the analysis. Proteins were extracted from cells, quantified by the Bradford method and split into equal amounts for analyses. […] After extraction and solubilisation, proteins in samples were quantified by the Bradford method using calibrated BSA (bovine serum albumin) as standard (Bradford M. Anal. Biochem., 72, 248, 1976). […] Proteins were fixed to the gel and the carbonylated proteins were evidenced by fluorescence scanning. […] Quantification was obtained from each sample, both for carbonylated and total proteins. […]

`CC(=O)N[C@@H](CS)C(=O)O` [NAC, N-acetyl-cysteine]: the “Carbonyl Score” value (NAC 6 h incubation before blue light irradiation, group G-7, carbonylated signal normalized by total protein signal) is 0.734 and 0.742 and 0.657; the “Carbonyl Score” value (NAC 24 h incubation before blue light irradiation, group G-8, carbonylated signal normalized by total protein signal) was 0.639 and 0.700 and 0.631. The Oxidized proteins (NAC 6 h incubation before blue light irradiation, group G-7, densitometric signal per replicate) was 12101.36 and 11379.65 and 10415.94; the Oxidized proteins (NAC 24 h incubation before blue light irradiation, group G-8, densitometric signal per replicate) was 9126.82 and 11501.94 and 10859.53.
